We go through one substance from patent US5583018A, “Rapamycin derivative process for its preparation and its use” (SmithKline Beecham p.l.c., priority 1993, dated 1996).

The test system of experiment [1] is Saccharomyces cerevisiae. Description: Assay for antifungal activity (agar well zone of inhibition). It counts as cell-based. As for the experimental part: Yeast organism (Saccharomyces cerevisiae) in logarithmic growth were plated on complete agar medium (YPD). Compounds dissolved in an appropriate aqueous or organic solvent were placed in wells punched in the agar. Plates were incubated for 48 hours and zones of inhibition were measured. The potency of compounds were quantified by regression analysis of plots of inhibition zone versus the log of drug concentration.

Experiment [2] concerns Spleen cells. Description: Mitogenesis assay for immunosuppressive activity (Concanavalin A stimulated spleen cells, 3H-thymidine). It counts as cell-based, BDF1 female mice. On the procedure: Spleen cells for BDF1 female mice were established in RPMI with 10% fetal calf serum at 5×10^6 /mL. One hundred […] of this suspension (5×10^5 cells) were dispensed into 96-well round-bottomed microtiter plates (Linbro, Flow Laboratories). Concanavalin A (5 μg/ml) was added as the mitogenic stimulus, and the final volume in the microliter wells was adjusted to 200 μL with RPMI. Cell cultures were incubated for 72 hours at 37° C. in a 5% CO2 atmosphere and pulsed with 0,5 μCi ^3 H-thymidine (specific activity […]) for the last 18 hours of the 72 hours culture. The cells were harvested on an automated multiple sample harvester and cell-associated radioactivity counted in a Beckman liquid scintillation counter. The results were expressed as the mean values derived from quadruplicate measurements. Cell viability was determined by trypan blue exclusion after 72 hours of incubation. Compounds to be tested were added to the microtiler plates at the appropriate dilutions prior to the addition of cells.

Consider 13,14-Bis(dihydro)rapamycin, for which the “antifungal activity (in words)” value in experiment [1] is given as “shows antifungal activity”. Moreover, the “Antifungal Activity, IC12” value in experiment [1] (Saccharomyces cerevisiae on YPD agar, 48 hours, zones of inhibition) was in the range of 190 to 840 ng/mL. The “immunomodulatory activity (in words)” value in experiment [2] was “shows immunomodulatory activity”. The substance further gave an IC50 in experiment [2] (spleen cells of BDF1 mice, Concanavalin A 5 μg/ml, 72 hours) of 0.07 to 0.2 µM.
